From patent US8314250B2, “Sultam derivatives” (Hoffmann-La Roche Inc., priority 2009, dated 2012)
Structures can show the parent of a compound that is named as a salt.

tested on: HeLa cells; assay: CellTiter-Glo luminescent cell viability (cytotoxicity) assay; type: cell-based; details: Homo sapiens, HeLa, 48 h, 10 μM test compound, inhibition of luminescence compared to control cells, read-out: Activity (PCT_INHIB @ 10 μM)
Method: Cytotoxicity was assessed using Promega's CellTiter-Glo® luminescent cell viability assay (Promega Corporation, Madison, Wis., USA) as described in Promega Technical Bulletin TB288, revised August 2008. The assay was performed in HeLa cells at a maximum concentration tested of 10 μM of test compound. This assay measures the amount of adenosine triphosphate (ATP) present as a way of quantifying the presence and degree of metabolic activity in cell cultures.
Viable Hela cells were plated at a density of 3000 cells/well in 96 wells in black, clear bottom plates. Cells were allowed to attach to the plate by incubating overnight at 37° C. Test compounds were diluted in DMSO then further diluted in 10% FBS media. Media was removed from the cell plates and 50 μL of the solution was added to each well manually with the exception of the control well, which contained the same volume of 10% FBS media which includes 1% DMSO. Cells were incubated in the presence of compound undisturbed for 48 hours at 37° C. After the 48 hour compound exposure, 50 μL of the pCellTiter Glo® reagent was added. The cell plates were agitated on a shaker for 2 minutes to help lyse the cells. The plate was covered and read for luminescence.
Percent inhibition was calculated as follows: PCT_INHIB=100*[(U−T)/U] Where U represents the Luminescence of wells containing untreated cells and
T represents the Luminescence of wells containing compound-treated cells

Compound	inhibition at 10 µM [%]
C[C@@H]1[C@@H](NC(=O)C2CCS(=O)(=O)N2Cc2cccc(CN(Cc3ccccc3Oc3ccc(C#N)cc3)[C@H](CN(C)C)CC(C)(C)C)c2)C[C@H]2C[C@@H]1C2(C)C (stereo partly drawn) [Example 16, 2-(3-{[[2-(4-Cyano-phenoxy)-benzyl]-((S)-1-dimethylaminomethyl-3,3-dimethyl-butyl)-amino]-methyl}-benzyl)-1,1-dioxo-1λ^6-isothiazolidine-3-carboxylic acid((1S,2S,3S,5R)-2,6,6-trimethyl-bicyclo[3.1.1]hept-3-yl)-amide trifluoroacetate salt]	97
C[C@@H]1[C@@H](NC(=O)C2CCS(=O)(=O)N2Cc2cccc(CN(Cc3cccc4c3OCO4)[C@H](CN(C)C)CC(C)(C)C)c2)C[C@H]2C[C@@H]1C2(C)C (stereo partly drawn) [Example 17, 2-(3-{[Benzo[1,3]dioxol-4-ylmethyl-((S)-1-dimethylaminomethyl-3,3-dimethyl-butyl)-amino]-methyl}-benzyl)-1,1-dioxo-1λ^6-isothiazolidine-3-carboxylic acid((1S,2S,3S,5R)-2,6,6-trimethyl-bicyclo[3.1.1]hept-3-yl)-amide trifluoroacetate salt]	96
C[C@@H]1[C@@H](NC(=O)C2CCS(=O)(=O)N2Cc2cccc(CN(Cc3c(F)ccc(Br)c3F)[C@H](CN(C)C)CC(C)(C)C)c2)C[C@H]2C[C@@H]1C2(C)C (stereo partly drawn) [Example 18, 2-(3-{[(3-Bromo-2,6-difluoro-benzyl)-((S)-1-dimethylaminomethyl-3,3-dimethyl-butyl)-amino]-methyl}-benzyl)-1,1-dioxo-1λ^6-isothiazolidine-3-carboxylic acid((1S,2S,3S,5R)-2,6,6-trimethyl-bicyclo[3.1.1]hept-3-yl)-amide trifluoroacetate salt]	94
COc1ccc(Cl)c(CN(Cc2cccc(CN3C(C(=O)N[C@@H]4C[C@@H]5C[C@H]([C@H]4C)C5(C)C)CCS3(=O)=O)c2)[C@H](CN(C)C)CC(C)(C)C)c1F (stereo partly drawn) [Example 19, 2-(3-{[(6-Chloro-2-fluoro-3-methoxy-benzyl)-((S)-1-dimethylaminomethyl-3,3-dimethyl-butyl)-amino]-methyl}-benzyl)-1,1-dioxo-1λ^6-isothiazolidine-3-carboxylic acid((1R,2R,3R,5S)-2,6,6-trimethyl-bicyclo[3.1.1]hept-3-yl)-amide]	73
COc1ccc(Cl)c(CN(Cc2cccc(CN3C(C(=O)NC45CC6CC(CC(C6)C4)C5)CCS3(=O)=O)c2)[C@H](CN(C)C)CC(C)(C)C)c1F (stereo partly drawn) [Example 20, 2-(3-{[(6-Chloro-2-fluoro-3-methoxy-benzyl)-((S)-1-dimethylaminomethyl-3,3-dimethyl-butyl)-amino]-methyl}-benzyl)-1,1-dioxo-1λ^6-isothizolidine-3-carboxylic acid adamantan-1-ylamide]	95
COc1ccc(Cl)c(CN(Cc2cccc(CN3C(C(=O)N[C@H]4C[C@H]5C[C@@H]([C@@H]4C)C5(C)C)CCS3(=O)=O)c2)[C@@H](Cc2ccccc2)CN(C)C)c1F (stereo partly drawn) [Example 21, 2-(3-{[(6-Chloro-2-fluoro-3-methoxy-benzyl)-((S)-1-dimethylaminomethyl-2-phenyl-ethyl)-amino]-methyl}-benzyl)-1,1-dioxo-1λ^6-isothiazolidine-3-carboxylic acid((1S,2S,3S,5R)-2,6,6-trimethyl-bicyclo[3.1.1]hept-3-yl)-amide]	77
COc1ccc(Cl)c(CN(Cc2cccc(CN3C(C(=O)N[C@H]4C[C@H]5C[C@@H]([C@@H]4C)C5(C)C)CCS3(=O)=O)c2)[C@@H](Cc2cccc(Cl)c2)CN(C)C)c1F (stereo partly drawn) [Example 22, 2-[3-({(6-Chloro-2-fluoro-3-methoxy-benzyl)-[(S)-2-(3-chloro-phenyl)-1-dimethylaminomethyl-ethyl]-amino}-methyl)-benzyl]-1,1-dioxo-1λ^6-isothiazolidine-3-carboxylic acid((1S,2S,3S,5R)-2,6,6-trimethyl-bicyclo[3.1.1]hept-3-yl)-amide]	93
COc1ccc(Cl)c(CN(Cc2cccc(CN3C(C(=O)N[C@H]4C[C@H]5C[C@@H]([C@@H]4C)C5(C)C)CCS3(=O)=O)c2)[C@@H](Cc2ccc(Cl)cc2)CN(C)C)c1F (stereo partly drawn) [Example 23, 2-[3-({(6-Chloro-2-fluoro-3-methoxy-benzyl)-[(S)-2-(4-chloro-phenyl)-1-dimethylaminomethyl-ethyl]-amino}-methyl)-benzyl]-1,1-dioxo-1λ^6-isothiazolidine-3-carboxylic acid((1S,2S,3S,5R)-2,6,6-trimethyl-bicyclo[3.1.1]hept-3-yl)-amide]	96
COc1ccc(Cl)c(CN(Cc2cccc(CN3C(C(=O)N4CCC(c5ccccc5)CC4)CCS3(=O)=O)c2)[C@H](CN(C)C)CC(C)(C)C)c1F (stereo partly drawn) [Example 24, [2-(3-{[(6-Chloro-2-fluoro-3-methoxy-benzyl)-((S)-1-dimethylaminomethyl-3,3-dimethyl-butyl)-amino]-methyl}-benzyl)-1,1-dioxo-1λ^6-isothiazolidin-3-yl]-(4-phenyl-piperidin-1-yl)-methanone]	96
COc1ccc(Cl)c(CN(Cc2cccc(CN3C(C(=O)NCc4ccc(Cl)cc4)CCS3(=O)=O)c2)[C@H](CN(C)C)CC(C)(C)C)c1F (stereo partly drawn) [Example 27, 2-(3-{[(6-Chloro-2-fluoro-3-methoxy-benzyl)-((S)-1-dimethylaminomethyl-3,3-dimethyl-butyl)-amino]-methyl}-benzyl)-1,1-dioxo-1λ^6-isothiazolidine-3-carboxylic acid 4-chloro-benzylamide]	95
COc1ccc(Cl)c(CN(Cc2cccc(CN3C(C(=O)N[C@H]4CC5CCC4(C)C5(C)C)CCS3(=O)=O)c2)[C@H](CN(C)C)CC(C)(C)C)c1F (stereo partly drawn) [Example 28, 2-(3-{[(6-Chloro-2-fluoro-3-methoxy-benzyl)-((S)-1-dimethylaminomethyl-3,3-dimethyl-butyl)-amino]-methyl}-benzyl)-1,1-dioxo-1λ^6-isothiazolidine-3-carboxylic acid((S)-1,7,7-trimethyl-bicyclo[2.2.1]hept-2-yl)-amide]	96
COc1ccc(F)c(F)c1CN(Cc1cccc(CN2C(C(=O)N[C@H]3C[C@H]4C[C@@H]([C@@H]3C)C4(C)C)CCS2(=O)=O)c1)[C@@H](Cc1ccccc1)CN(C)C (stereo partly drawn) [Example 29, 2-(3-{[(2,3-Difluoro-6-methoxy-benzyl)-((S)-1-dimethylaminomethyl-2-phenyl-ethyl)-amino]-methyl}-benzyl)-1,1-dioxo-1λ^6-isothiazolidine-3-carboxylic acid((1S,2S,3S,5R)-2,6,6-trimethyl-bicyclo[3.1.1]hept-3-yl)-amide]	95
COc1ccc(Cl)c(CN(Cc2cccc(CN3C(C(=O)NC4C5CC6CC(C5)CC4C6)CCS3(=O)=O)c2)[C@H](CN(C)C)CC(C)(C)C)c1F (stereo partly drawn) [Example 30, 2-(3-{[(6-Chloro-2-fluoro-3-methoxy-benzyl)-((S)-1-dimethylaminomethyl-3,3-dimethyl-butyl)-amino]-methyl}-benzyl)-1,1-dioxo-1λ^6-isothiazolidine-3-carboxylic acid adamantan-2-ylamide]	96
COc1ccc(Cl)c(CN(Cc2cccc(CN3C(C(=O)N4CCC(O)(c5ccc(Cl)cc5)CC4)CCS3(=O)=O)c2)[C@H](CN(C)C)CC(C)(C)C)c1F (stereo partly drawn) [Example 32, [2-(3-{[(6-Chloro-2-fluoro-3-methoxy-benzyl)-((S)-1-dimethylaminomethyl-3,3-dimethyl-butyl)-amino]-methyl}-benzyl)-1,1-dioxo-1λ^6-isothiazolidin-3-yl]-[4-(4-chloro-phenyl)-4-hydroxy-piperidin-1-yl]-methanone]	96
COc1ccc(Cl)c(CN(Cc2cc(CN3C(C(=O)N[C@H]4C[C@H]5C[C@@H]([C@@H]4C)C5(C)C)CCS3(=O)=O)cc(N(C)C)c2)[C@H](CN(C)C)CC(C)(C)C)c1F (stereo partly drawn) [Example 35, 2-(3-{[(6-Chloro-2-fluoro-3-methoxy-benzyl)-((S)-1-dimethylaminomethyl-3,3-dimethyl-butyl)-amino]-methyl}-5-dimethylamino-benzyl)-1,1-dioxo-1λ^6-isothiazolidine-3-carboxylic acid((1S,2S,3S,5R)-2,6,6-trimethyl-bicyclo[3.1.1]hept-3-yl)-amide, hydrochloride salt]	86
